No end group written: not given here.
B1: thaumatin (protein)
chain: ATFEIVNRCSYTVWAAASKGDAALDAGGRQLNSGESWTINVEPGTKGGKIWARTDCYFDDSGSGICKTGDCGGLLRCKRFGRPPTTLAEFSLNQYGKDYIDISNIKGFNVPMDFSPTTRGCRGVRCAADIVGQCPAKLKAPGGGCNDACTVFQTSEYCCTTGKCGPTEYSRFFKRLCPDAFSYVLDKPTTVTCPGSSNYRVTFCPTA
modifications: Eight disulfides
notes: sweet-tasting plant protein, E957

Molecular target: T1, human TAS1R2-R317P/TAS1R3-WT (Homo sapiens, UniProt Q7RTX0+Q8TE23, R317P)
T1 construct: expressed in transfected cells; host or cells: HEK293T-Gα16gust44
T1 sequence (Q8TE23 20-839 R317P): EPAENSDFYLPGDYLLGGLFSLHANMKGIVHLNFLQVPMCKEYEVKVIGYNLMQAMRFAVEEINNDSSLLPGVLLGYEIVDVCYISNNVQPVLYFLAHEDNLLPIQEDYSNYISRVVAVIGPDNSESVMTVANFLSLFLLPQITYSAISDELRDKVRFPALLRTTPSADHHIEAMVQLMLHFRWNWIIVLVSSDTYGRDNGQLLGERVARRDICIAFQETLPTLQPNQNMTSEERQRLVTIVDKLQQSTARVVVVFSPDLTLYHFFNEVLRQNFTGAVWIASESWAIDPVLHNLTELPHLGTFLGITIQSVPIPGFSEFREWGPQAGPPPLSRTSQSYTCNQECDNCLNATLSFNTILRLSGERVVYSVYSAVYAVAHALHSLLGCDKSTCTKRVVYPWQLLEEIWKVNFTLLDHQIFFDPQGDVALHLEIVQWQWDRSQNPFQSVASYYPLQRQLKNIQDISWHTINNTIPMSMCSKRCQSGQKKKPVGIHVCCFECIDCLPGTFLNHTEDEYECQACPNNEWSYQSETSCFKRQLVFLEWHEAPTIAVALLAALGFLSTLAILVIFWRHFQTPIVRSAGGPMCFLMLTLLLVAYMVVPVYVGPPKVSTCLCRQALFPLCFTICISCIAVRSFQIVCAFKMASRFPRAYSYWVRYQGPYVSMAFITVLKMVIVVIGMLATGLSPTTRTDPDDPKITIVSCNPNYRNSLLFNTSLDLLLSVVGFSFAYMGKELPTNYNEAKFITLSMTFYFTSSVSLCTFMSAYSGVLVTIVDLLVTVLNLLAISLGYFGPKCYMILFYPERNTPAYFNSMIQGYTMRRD
T1 sequence (Q7RTX0 21-852): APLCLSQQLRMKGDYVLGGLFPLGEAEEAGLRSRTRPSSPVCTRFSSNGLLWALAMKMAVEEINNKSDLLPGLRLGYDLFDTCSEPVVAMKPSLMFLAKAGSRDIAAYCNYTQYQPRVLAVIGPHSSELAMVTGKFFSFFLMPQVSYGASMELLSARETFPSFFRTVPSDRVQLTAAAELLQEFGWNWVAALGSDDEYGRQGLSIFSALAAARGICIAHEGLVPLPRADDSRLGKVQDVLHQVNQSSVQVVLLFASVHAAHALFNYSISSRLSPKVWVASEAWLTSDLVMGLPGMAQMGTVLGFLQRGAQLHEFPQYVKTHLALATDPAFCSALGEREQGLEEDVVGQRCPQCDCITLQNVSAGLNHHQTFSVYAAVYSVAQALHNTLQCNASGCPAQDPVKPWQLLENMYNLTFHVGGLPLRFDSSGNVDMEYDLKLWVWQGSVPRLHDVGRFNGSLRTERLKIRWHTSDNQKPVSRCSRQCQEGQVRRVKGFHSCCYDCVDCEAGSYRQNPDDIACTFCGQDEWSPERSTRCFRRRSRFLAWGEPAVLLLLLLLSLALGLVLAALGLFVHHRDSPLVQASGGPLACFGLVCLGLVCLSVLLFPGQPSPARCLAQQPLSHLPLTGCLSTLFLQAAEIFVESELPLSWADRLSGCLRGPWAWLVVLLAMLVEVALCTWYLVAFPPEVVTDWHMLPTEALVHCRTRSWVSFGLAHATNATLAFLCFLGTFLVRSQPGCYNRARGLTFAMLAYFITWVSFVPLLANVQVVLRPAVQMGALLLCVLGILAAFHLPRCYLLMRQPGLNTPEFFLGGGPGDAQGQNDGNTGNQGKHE
Test: Calcium mobilisation assay, TAS1R2 variant R317P with TAS1R3-WT
Type: cell-based
Details: for Max ΔF/F0: maximal signal amplitude
Excerpt: The coding sequences for TAS1R2 and TAS1R3 were commercially synthesised, and the human codon was optimised for expression in human cells. The coding sequences of human TAS1R2 and TAS1R3 were subcloned and inserted into the mammalian expression vectors pcDNA6/myc-HisA and pcDNA4/myc-HisA (Invitrogen; Thermo Fisher Scientific; Illkirch, France) between the EcoRI and NotI restriction sites, generating the plasmids pcDNA6-TAS1R2 and pcDNA4-TAS1R3, respectively. To increase protein expression in mammalian cells, an upstream start codon was used, which was a sequence called MAX, corresponding to the QBI SP163 element also described in pcDNA4-HisMax (Invitrogen; Thermo Fisher Scientific; Illkirch, France). To measure the expression level of the receptor by immunohistochemistry, we used the FLAG sequence ([…]) in the C-terminal position, which encodes the FLAG tag epitope. SNP variants of TAS1R2 and TAS1R3 were constructed based on […], respectively, using site-directed mutagenesis (Genewiz; Leipzig, Germany).
The HEK293T cells were kindly provided by Jay P. Slack (Givaudan Flavors Corporation; Cincinnati, OH, USA). HEK293T cells stably transfected with Gα16gust44 [43, 67] were seeded in poly-D-lysine-coated clear-bottom black 96-well plates (0.35 × 10^5 cells/well) in high-glucose DMEM supplemented with 2 mM GlutaMAX, 10% dialysed foetal bovine serum with penicillin/streptomycin and G418 (400 μg/mL) at 37 °C and 6.3% CO2 in a humidified atmosphere as previously reported. […] As a negative control, HEK293T cells were mock-transfected with the empty expression vector. After a further 24 h of incubation, the HEK293T cells were washed with C1 buffer (130 mM NaCl, 5 mM KCl, 10 mM HEPES pH 7.4 and 2 mM CaCl2). The 96-well plates containing the cells were then stimulated with sweet-tasting compounds. […] Different concentration ranges were tested depending on the sweet compound injected. The Ca^2+ changes were expressed as fractional changes in fluorescent light intensity: ΔF/F = (F − F0)/F0, where F was the fluorescent light intensity at each point, and F0 was the value of emitted fluorescent light prior to stimulus application. To calculate dose–response relationships, the changes in fluorescence upon stimulus application were averaged, mock-subtracted and baseline-corrected. The dose–response data obtained were adjusted using a 4-parameter logistic equation. The half-maximal effective concentrations (EC50 values) and maximal signal amplitudes were calculated using SigmaPlot software (version 15.0) (Systat Software; San Jose, CA, USA).
For in vitro calcium mobilisation assay performed on hTAS1R2-SNPs, hTAS1R3-SNPs and mTAS1R3-I60T, 6 to 7 concentrations were tested for each sweet compound, plus buffer alone. All concentration–receptor combinations were measured in duplicate, and each experiment was repeated at least 4 times (8 wells/concentration). Results were expressed for each concentration as ΔF/F mean ± SEM and represented as dose–response curves.

Molecule | EC50 | R1 = Variant EC50/WT EC50 | Max ΔF/F0
CC1=CC(=O)NS(=O)(=O)O1 [Acesulfame K, acesulfame K] | 685 ± 41 µM | 1.0 | 0.42 ± 0.01
O=S(=O)(O)NC1CCCCC1 [Cyclamate, cyclamate] | 2860 ± 62 µM | – | –
C[C@H](CC[C@@H](O[C@@H]1O[C@H](CO[C@@H]2O[C@H](CO)[C@@H](O)[C@H](O)[C@H]2O)[C@@H](O)[C@H](O)[C@H]1O[C@@H]1O[C@H](CO)[C@@H](O)[C@H](O)[C@H]1O)C(C)(C)O)[C@H]1CC[C@@]2(C)[C@@H]3CC=C4[C@@H](CC[C@H](O[C@@H]5O[C@H](CO[C@@H]6O[C@H](CO)[C@@H](O)[C@H](O)[C@H]6O)[C@@H](O)[C@H](O)[C@H]5O)C4(C)C)[C@]3(C)[C@H](O)C[C@]12C [Mogroside V, mogroside V] | 27.9 ± 2.5 µM | 1.6 | 1.51 ± 0.05
COc1ccc(CCC(=O)c2c(O)cc(O[C@@H]3O[C@H](CO)[C@@H](O)[C@H](O)[C@H]3O[C@@H]3O[C@@H](C)[C@H](O)[C@@H](O)[C@H]3O)cc2O)cc1O [NHDC, neohesperidin dihydrochalcone] | 171 ± 26.2 µM | 2.2 | 0.58 ± 0.04
COC(=O)[C@H](Cc1ccccc1)NC(=O)[C@H](CC(=O)O)NCCC(C)(C)C [Neotame] | 0.86 ± 0.16 µM | 1.0 | 0.63 ± 0.04
C=C(C)[C@@H]1CC=C(/C=N/O)CC1 [Perillartine, perillartine] | 35.2 ± 2.2 µM | 2.0 | 1.16 ± 0.03
C=C1C[C@@]23CC[C@H]4[C@@](C)(CCC[C@@]4(C)C(=O)O[C@@H]4O[C@H](CO)[C@@H](O)[C@H](O[C@@H]5O[C@H](CO)[C@@H](O)[C@H](O)[C@H]5O)[C@H]4O[C@@H]4O[C@H](CO)[C@@H](O)[C@H](O)[C@H]4O)[C@@H]2CC[C@]1(O[C@@H]1O[C@H](CO)[C@@H](O)[C@H](O[C@@H]2O[C@H](CO)[C@@H](O)[C@H](O)[C@H]2O)[C@H]1O[C@@H]1O[C@H](CO)[C@@H](O)[C@H](O)[C@H]1O)C3 [Rebaudioside M, rebaudioside M] | 26.9 ± 0.5 µM | 1.6 | 1.19 ± 0.01
OC[C@H]1O[C@H](O[C@]2(CCl)O[C@H](CCl)[C@@H](O)[C@@H]2O)[C@H](O)[C@@H](O)[C@H]1Cl [Sucralose] | 98 ± 19 µM | 1.1 | 0.76 ± 0.06
brazzein (QDKCKKVYENYPVSKCQLANQCNYDCKLDKHARSGECFYDEKRNLQCICDYCEY; ends and bridges not checked; cysteine pairing not given here; UniProt P56552 1-54, looked up) [sweet-tasting protein obtained by recombinant production using the yeast Pichia pastoris] | – | 2.5 | 0.91 ± 0.02
thaumatin | – | 2.5 | 0.42 ± 0.01
B1 | 18.9 ± 0.7 µM | – | –
